Data as given in ChEMBL document CHEMBL1149126, “3-phenyl-6-(2-pyridyl)methyloxy-1,2,4-triazolo[3,4-a]phthalazines and analogues: high-affinity gamma-aminobutyric acid-A benzodiazepine receptor ligands with alpha 2, alpha 3, and alpha 5-subtype binding selectivity over alpha 1” (J Med Chem, 2004).

What was measured:
[1] = target: T1, GABA-A receptor; alpha-3/beta-3/gamma-2 (Homo sapiens, UniProt P18507+P28472+P34903); experiment: Binding affinity for human GABA-A receptor alpha-3-beta-3-gamma-2 subunits in L(tk-) cells; format: cell-based
T1 sequence (P18507 whole entry): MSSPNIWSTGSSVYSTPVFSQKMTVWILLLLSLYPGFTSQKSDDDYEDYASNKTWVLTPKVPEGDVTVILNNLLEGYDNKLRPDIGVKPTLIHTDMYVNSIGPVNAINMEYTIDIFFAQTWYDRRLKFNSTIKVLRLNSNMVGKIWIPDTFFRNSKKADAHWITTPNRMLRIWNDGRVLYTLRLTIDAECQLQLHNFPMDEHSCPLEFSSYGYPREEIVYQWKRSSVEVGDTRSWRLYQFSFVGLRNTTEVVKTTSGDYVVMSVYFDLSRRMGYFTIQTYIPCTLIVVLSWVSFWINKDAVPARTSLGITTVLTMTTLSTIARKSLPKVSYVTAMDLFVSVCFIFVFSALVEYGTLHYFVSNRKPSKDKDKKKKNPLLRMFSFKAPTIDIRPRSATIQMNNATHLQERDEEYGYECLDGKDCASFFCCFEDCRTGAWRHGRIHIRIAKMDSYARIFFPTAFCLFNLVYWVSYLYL
T1 sequence (P28472 whole entry): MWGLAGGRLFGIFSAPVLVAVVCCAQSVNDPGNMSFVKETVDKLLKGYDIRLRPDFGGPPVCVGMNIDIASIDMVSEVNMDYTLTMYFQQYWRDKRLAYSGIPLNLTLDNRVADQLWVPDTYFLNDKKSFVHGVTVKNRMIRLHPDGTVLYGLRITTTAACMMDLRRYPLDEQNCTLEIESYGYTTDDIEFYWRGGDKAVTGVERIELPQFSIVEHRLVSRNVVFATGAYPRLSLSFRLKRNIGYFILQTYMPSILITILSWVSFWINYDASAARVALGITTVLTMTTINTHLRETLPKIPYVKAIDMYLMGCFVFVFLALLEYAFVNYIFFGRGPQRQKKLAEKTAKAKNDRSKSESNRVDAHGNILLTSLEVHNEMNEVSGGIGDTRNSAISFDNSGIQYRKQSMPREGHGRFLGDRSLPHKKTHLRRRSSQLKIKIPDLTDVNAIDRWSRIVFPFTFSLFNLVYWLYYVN
T1 sequence (P34903 whole entry): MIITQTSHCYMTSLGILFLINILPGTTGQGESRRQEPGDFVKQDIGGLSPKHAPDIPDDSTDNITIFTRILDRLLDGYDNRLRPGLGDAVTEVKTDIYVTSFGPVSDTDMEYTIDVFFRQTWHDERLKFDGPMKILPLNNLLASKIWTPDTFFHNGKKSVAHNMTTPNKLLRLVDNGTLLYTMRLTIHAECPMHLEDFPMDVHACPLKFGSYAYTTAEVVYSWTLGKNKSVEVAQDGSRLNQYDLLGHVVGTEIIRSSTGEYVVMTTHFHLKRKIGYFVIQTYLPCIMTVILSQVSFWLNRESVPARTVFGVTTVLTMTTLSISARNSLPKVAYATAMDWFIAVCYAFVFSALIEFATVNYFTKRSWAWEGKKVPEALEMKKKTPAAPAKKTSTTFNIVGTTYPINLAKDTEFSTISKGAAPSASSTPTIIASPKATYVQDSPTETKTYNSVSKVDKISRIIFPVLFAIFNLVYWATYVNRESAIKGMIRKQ

[2] = target: T2, GABA-A receptor; alpha-1/beta-3/gamma-2 (Homo sapiens, UniProt P14867+P18507+P28472); experiment: Binding affinity for human GABA-A receptor alpha-1-beta-3-gamma-2 subunits in L(tk-) cells
T2 sequence (P14867 whole entry): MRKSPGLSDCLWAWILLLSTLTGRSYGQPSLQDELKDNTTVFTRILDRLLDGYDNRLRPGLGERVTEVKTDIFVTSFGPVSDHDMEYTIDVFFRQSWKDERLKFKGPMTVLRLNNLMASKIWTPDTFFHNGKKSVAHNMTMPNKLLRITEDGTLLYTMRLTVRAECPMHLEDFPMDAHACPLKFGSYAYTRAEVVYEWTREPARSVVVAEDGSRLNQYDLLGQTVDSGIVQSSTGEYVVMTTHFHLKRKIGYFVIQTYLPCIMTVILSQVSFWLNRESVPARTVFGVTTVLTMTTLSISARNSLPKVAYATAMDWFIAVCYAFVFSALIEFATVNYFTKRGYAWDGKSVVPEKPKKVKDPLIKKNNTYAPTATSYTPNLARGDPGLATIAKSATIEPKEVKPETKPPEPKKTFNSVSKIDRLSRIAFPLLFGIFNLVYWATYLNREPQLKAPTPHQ
T2 sequence (P18507 whole entry): T1 sequence (P18507 whole entry)
T2 sequence (P28472 whole entry): T1 sequence (P28472 whole entry)

[3] = target: T3, GABA-A receptor; alpha-2/beta-3/gamma-2 (Homo sapiens, UniProt P18507+P28472+P47869); experiment: Binding affinity for human GABA-A receptor alpha-2-beta-3-gamma-2 subunits in L(tk-) cells; format: cell-based
T3 sequence (P18507 whole entry): T1 sequence (P18507 whole entry)
T3 sequence (P28472 whole entry): T1 sequence (P28472 whole entry)
T3 sequence (P47869 whole entry): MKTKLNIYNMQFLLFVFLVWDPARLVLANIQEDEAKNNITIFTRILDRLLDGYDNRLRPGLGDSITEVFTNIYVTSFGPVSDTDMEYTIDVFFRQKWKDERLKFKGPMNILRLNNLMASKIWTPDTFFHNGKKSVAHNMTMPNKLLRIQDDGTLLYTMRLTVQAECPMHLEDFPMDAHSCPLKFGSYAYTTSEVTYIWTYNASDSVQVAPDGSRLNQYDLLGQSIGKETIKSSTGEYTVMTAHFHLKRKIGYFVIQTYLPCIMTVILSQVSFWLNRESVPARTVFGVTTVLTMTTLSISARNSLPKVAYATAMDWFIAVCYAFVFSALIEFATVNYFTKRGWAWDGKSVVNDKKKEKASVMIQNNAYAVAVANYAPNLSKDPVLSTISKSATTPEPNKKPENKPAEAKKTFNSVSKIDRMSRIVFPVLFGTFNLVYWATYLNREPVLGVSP

[4] = target: T4, GABA-A receptor; alpha-5/beta-3/gamma-2 (Homo sapiens, UniProt P18507+P28472+P31644); experiment: Binding affinity for human GABA-A receptor alpha-5-beta-3-gamma-2 subunits in L(tk-) cells; format: cell-based
T4 sequence (P18507 whole entry): T1 sequence (P18507 whole entry)
T4 sequence (P28472 whole entry): T1 sequence (P28472 whole entry)
T4 sequence (P31644 whole entry): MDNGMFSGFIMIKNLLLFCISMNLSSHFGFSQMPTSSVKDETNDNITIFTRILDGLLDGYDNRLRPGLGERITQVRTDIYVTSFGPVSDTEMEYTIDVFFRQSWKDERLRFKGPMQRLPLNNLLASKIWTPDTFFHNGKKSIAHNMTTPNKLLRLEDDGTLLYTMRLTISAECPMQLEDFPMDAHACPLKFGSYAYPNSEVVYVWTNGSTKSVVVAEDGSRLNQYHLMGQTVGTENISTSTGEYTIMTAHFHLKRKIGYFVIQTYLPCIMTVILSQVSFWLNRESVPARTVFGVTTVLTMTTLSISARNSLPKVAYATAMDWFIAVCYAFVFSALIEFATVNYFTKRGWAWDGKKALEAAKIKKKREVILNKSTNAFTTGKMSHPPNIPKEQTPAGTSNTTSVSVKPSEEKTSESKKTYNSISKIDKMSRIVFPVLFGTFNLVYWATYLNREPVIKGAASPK

[5] = target: T5, GABA-A receptor; alpha-1/beta-3/gamma-2 (Homo sapiens) (UniProt P14867+P18507+P28472); experiment: Inverse agonistic activity against GABA-A receptor alpha-1-beta-3-gamma-2 subunits; format: functional
[6] = target: T6, GABA-A receptor; alpha-3/beta-3/gamma-2 (Homo sapiens) (UniProt P18507+P28472+P34903); experiment: Inverse agonistic activity against GABA-A receptor alpha-3-beta-3-gamma-2 subunits; format: functional
[7] = target: T6, GABA-A receptor; alpha-3/beta-3/gamma-2 (Homo sapiens); experiment: (§1) Maximum percent change compared to GABA EC20 against GABA-A alpha-3-beta-3-gamma-2 receptor; format: functional
[8] = target: T5, GABA-A receptor; alpha-1/beta-3/gamma-2 (Homo sapiens); experiment: (§2) Maximum percent change compared to GABA EC20 against GABA-A alpha-1-beta-3-gamma-2 receptor; format: functional
[9] = target: T7, GABA-A receptor; alpha-2/beta-3/gamma-2 (Homo sapiens) (UniProt P18507+P28472+P47869); experiment: Maximum percent change compared to GABA EC20 against GABA-A alpha-2-beta-3-gamma-2 receptor; format: functional
[10] = target: T8, GABA-A receptor; alpha-5/beta-3/gamma-2 (Homo sapiens) (UniProt P18507+P28472+P31644); experiment: Maximum percent change compared to GABA EC20 against GABA-A alpha-5-beta-3-gamma-2 receptor; format: functional
[11] = target: T6, GABA-A receptor; alpha-3/beta-3/gamma-2 (Homo sapiens); experiment: Agonistic activity against GABA-A receptor alpha-3-beta-3-gamma-2; format: functional
[12] = target: T6, GABA-A receptor; alpha-3/beta-3/gamma-2 (Homo sapiens); experiment: as §1; format: functional; remark: listed apart in the source
[13] = target: T5, GABA-A receptor; alpha-1/beta-3/gamma-2 (Homo sapiens); experiment: as §2; format: protein-complex assay
[14] = target: T5, GABA-A receptor; alpha-1/beta-3/gamma-2 (Homo sapiens); experiment: Partial agonistic activity against GABA-A receptor alpha-1-beta-3-gamma-2 subunits; format: functional
[15] = target: T6, GABA-A receptor; alpha-3/beta-3/gamma-2 (Homo sapiens); experiment: Partial agonistic activity against GABA-A receptor alpha-3-beta-3-gamma-2 subunits; format: functional
[16] = target: T7, GABA-A receptor; alpha-2/beta-3/gamma-2 (Homo sapiens); experiment: Partial agonistic activity against GABA-A receptor alpha-2-beta-3-gamma-2 subunits; format: functional
[17] = target: T8, GABA-A receptor; alpha-5/beta-3/gamma-2 (Homo sapiens); experiment: Efficacy at human GABA-A receptor alpha-5-beta-3-gamma-2 subunits

Row | SMILES | Ki [1] [nM] | Ki [2] [nM] | Ki [3] [nM] | Ki [4] [nM] | Efficacy [7] [%] | further results
1 | c1ccc(COc2nn3c(C4CC4)nnc3c3ccccc23)nc1 | 2.6 | 16 | 5.8 | 0.74 |  | Activity [5]: -20%; Activity [6]: -26%
2 | c1ccc(-c2nnc3c4c(c(OCc5ccccn5)nn23)CCCCC4)cc1 | 17 | 41 | 17 | 2.7 | 30 | Efficacy [9]: 27%; Efficacy [10]: 37%; Efficacy [8]: 30%
3 | Cc1nnc2c3ccccc3c(OCc3ccccn3)nn12 | 81 | 900 | 470 | 29 |  | Activity [11]: -38%
4 | c1ccc(-c2nnc3c4c(c(OCc5ccccn5)nn23)CCCC4)cc1 | 0.85 | 4.3 | 1.9 | 0.38 | 17 | Efficacy [9]: 18%; Efficacy [10]: 6%; Efficacy [8]: 16%
5 | Cc1ccc2c(c1)c(OCc1ccccn1)nn1c(-c3ccccc3)nnc21 | 1.2 | 2.2 | 2.2 | 0.64 | 27 | Efficacy [8]: 65%
6 | c1ccc(-c2nnc3c4ccccc4c(OCc4ccccn4)nn23)cc1 | 0.71 | 2.7 | 1.7 | 0.33 | -16 | Efficacy [12]: -16%; Efficacy [9]: -5%; Efficacy [10]: -5%; Efficacy [8]: -7%; Efficacy [13]: -7%
7 | COc1ccccc1COc1nn2c(-c3ccccc3)nnc2c2ccccc12 | > 1000 | > 1000 | > 1000 | > 1000 |  | 
8 | Cc1cccnc1COc1nn2c(-c3ccccc3)nnc2c2ccccc12 | 1 | 2.4 | 2.3 | 0.88 |  | 
9 | Clc1cccc(COc2nn3c(-c4ccccc4)nnc3c3ccccc23)c1 | > 1000 | > 1000 | > 1000 | > 1000 |  | 
10 | COc1ccc(COc2nn3c(-c4ccccc4)nnc3c3ccccc23)cc1 | 190 | 200 | 220 | 160 |  | 
11 | COc1cccc(COc2nn3c(-c4ccccc4)nnc3c3ccccc23)c1 | 66 | 800 | 170 | 150 |  | 
12 | c1ccc(-c2nnc3c4ccccc4c(OCc4ccncc4)nn23)cc1 | 7.7 | 24 | 11 | 6.1 |  | 
13 | Cn1ccnc1COc1nn2c(-c3ccccc3)nnc2c2ccccc12 | 0.22 | 0.51 | 0.7 | 0.17 |  | 

Now from value to molecule, other results behind:

Row | Ki [1] [nM] | Ki [2] [nM] | Ki [3] [nM] | Ki [4] [nM] | Efficacy [7] [%] | SMILES | further results
14 | 35 | 56 | 44 | 20 | 39 | Cc1cccc2c1c(OCc1ccccn1)nn1c(-c3ccccc3)nnc21 | Efficacy [8]: 43%
15 | 39 | 160 | 56 | 8 |  | CC(C)c1nnc2c3ccccc3c(OCc3ccccn3)nn12 | Activity [6]: -21%
16 | 0.37 | 1.2 | 1.8 | 0.84 | 19 | Cc1cccc2c(OCc3ccccn3)nn3c(-c4ccccc4)nnc3c12 | Efficacy [8]: 0%
17 | 11 | 49 | 28 | 3.2 | -31 | C=Cc1nnc2c3ccccc3c(OCc3ccccn3)nn12 | 
18 | 1.2 | 8.4 | 8 | 2.5 |  | Cc1cccc(COc2nn3c(-c4ccccc4)nnc3c3ccccc23)n1 | Activity [14]: 1%; Activity [15]: -8%; Activity [16]: -4%; Efficacy [17]: 11%
19 | 23 | 56 | 24 | 5.1 |  | c1ccc(COc2nn3c(C4CCC4)nnc3c3ccccc23)nc1 | 
20 | > 1000 | > 1000 | > 1000 | > 1000 |  | CC(C)(C)c1nnc2c3ccccc3c(OCc3ccccn3)nn12 | 
21 | 320 | 960 | 520 | 140 | 25 | CC(Oc1nn2c(-c3ccccc3)nnc2c2ccccc12)c1ccccn1 (centres undefined) | Efficacy [13]: 36%
22 | > 1000 | > 1000 | > 1000 | > 1000 |  | c1ccc(Oc2nn3c(-c4ccccc4)nnc3c3ccccc23)cc1 | 
